# According to ChEMBL document CHEMBL5543109, “Novel β-Hairpin Antimicrobial Peptide Containing the β-Turn Sequence of -NG- and the Tryptophan Zippers Facilitate Self-Assembly into Nanofibers, Exhibiting Excellent Antimicrobial Performance” (J Med Chem, 2024):
# The source made the active and inactive calls. The rule behind the calls is not given here.
# Columns and labels:
# [1] = Acute toxicity in mouse assessed as cell swelling at 230.5 mg/kg, ip by H and E staining based assay; assay type: organism-based; details: in vivo
# Staphylococcus aureus [2] = assay: Synergistic antibacterial activity against methicillin resistant Staphylococcus aureus assessed as fractional inhibitory concentration index incubated for 18 hrs in presence of rifampin by checkerboard assay; assay type: functional
# [3] = Self-assembly property of compound in PBS assessed as beta-sheet formation by measuring particle size at 50 uM by […]; assay type: physicochemical; details: buffer
# [4] = tested on: Staphylococcus epidermidis; assay: Antibacterial activity against Staphylococcus epidermidis ATCC 12228 incubated for 18 hrs by broth microdilution method; assay type: functional
# [5] = Acute toxicity in mouse assessed as tissue hemorrhage at 230.5 mg/kg, ip by H and E staining based assay; assay type: organism-based; details: in vivo
# Klebsiella pneumoniae [6] = assay: […] antibacterial activity against Klebsiella pneumoniae assessed as fractional inhibitory concentration index incubated for 18 hrs in presence of polymyxin B by checkerboard assay; assay type: functional
# Staphylococcus aureus [7] = assay: Antibacterial activity against methicillin resistant Staphylococcus aureus incubated for 18 hrs by broth microdilution method; assay type: functional
# Pseudomonas aeruginosa [8] = assay: Induction of morphological change in Pseudomonas aeruginosa assessed as pore formation at 2 times MIC incubated for 30 mins by SEM analysis; assay type: functional, organism-based
# Staphylococcus aureus [9] = assay: Synergistic antibacterial activity against Staphylococcus aureus 794 assessed as fractional inhibitory concentration index incubated for 18 hrs in presence of cefotaxime by checkerboard assay; assay type: functional
# [10] = Toxicity in BALB/c mouse infected with Staphylococcus aureus 794 assessed as hyperkeratosis at 1 mg/ml, ip pre-infected with bacteria for 24 hrs followed by compound addition and measured after 13 days by H and E staining based histopathological analysis; assay type: organism-based; details: in vivo, 312 h, time 13 day
# Escherichia coli [11] = assay: Antibacterial activity against Escherichia coli infected in BALB/c mouse systemic infection model assessed as reduction in liver bacterial load at 5 to 10 mg/kg, ip measured after 24 hrs; assay type: functional, organism-based; details: dose 5-10 mg/kg
# Klebsiella pneumoniae [12] = assay: Bactericidal activity against Klebsiella pneumoniae at 2 times MIC within 90 mins; assay type: functional; details: 1.5 h
# Escherichia coli [13] = assay: Synergistic antibacterial activity against kanamycin resistant Escherichia coli assessed as fractional inhibitory concentration index incubated for 18 hrs in presence of cefotaxime by checkerboard assay; assay type: functional
# Staphylococcus aureus [14] = assay: Synergistic antibacterial activity against rifampicin resistant Staphylococcus aureus assessed as fractional inhibitory concentration index incubated for 18 hrs in presence of rifampin by checkerboard assay; assay type: functional
# Escherichia coli [15] = assay: Bactericidal activity against Escherichia coli ATCC 25922 incubated for 18 hrs by broth microdilution method; assay type: functional
# Pseudomonas aeruginosa [16] = assay: Additive antibacterial activity against Pseudomonas aeruginosa assessed as fractional inhibitory concentration index incubated for 18 hrs in presence of rifampin by checkerboard assay; assay type: functional
# Staphylococcus aureus [17] = assay: Antibacterial activity against Staphylococcus aureus ATCC 25923 infected in BALB/c mouse skin wound infection model assessed as reduction in wound bacterial load at 1 mg/ml, ip administered at 1 hr interval for total 6 treatment and measured after 1 hr post last dose; assay type: functional, organism-based; details: time 7.0 hrs
# Staphylococcus aureus [18] = assay: Synergistic antibacterial activity against methicillin resistant Staphylococcus aureus 75 assessed as fractional inhibitory concentration index incubated for 18 hrs in presence of cefotaxime by checkerboard assay; assay type: functional
# Staphylococcus aureus [19] = assay: Antibacterial activity against Staphylococcus aureus incubated for 18 hrs in presence of NH4Cl by broth microdilution method; assay type: functional, organism-based
# Staphylococcus aureus [20] = assay: Antibacterial activity against Staphylococcus aureus 794 infected in BALB/c mouse skin wound infection model assessed as wound healing by measuring detached scab at 1 mg/ml, ip pre-infected with bacteria for 24 hrs followed by compound addition and measured on day 7; assay type: functional, organism-based; details: time 7.0 day
# Staphylococcus aureus [21] = assay: Synergistic antibacterial activity against Staphylococcus aureus 125 assessed as fractional inhibitory concentration index incubated for 18 hrs in presence of bacitracin by checkerboard assay; assay type: functional
# Staphylococcus aureus [22] = assay: Bactericidal activity against Staphylococcus aureus ATCC 25923 incubated for 18 hrs by broth microdilution method; assay type: functional
# [23] = Stability in mouse serum assessed as half-life measured upto 48 hrs by RP-HPLC analysis; assay type: ADME, cell-free
# Escherichia coli [24] = assay: Antibacterial activity against rifampicin resistant Escherichia coli incubated for 18 hrs by broth microdilution method; assay type: functional
# [25] = Toxicity in BALB/c mouse infected with Staphylococcus aureus 794 assessed as epidermal layer thickness at 1 mg/ml, ip pre-infected with bacteria for 24 hrs followed by compound addition and measured after 13 days by H and E staining based histopathological analysis; assay type: organism-based; details: in vivo, 312 h, time 13 day
# Pseudomonas aeruginosa [26] = assay: Antibacterial activity against Pseudomonas aeruginosa assessed as fractional inhibitory concentration index incubated for 18 hrs in presence of cefotaxime by checkerboard assay; assay type: functional
# Escherichia coli [27] = assay: Synergistic antibacterial activity against Escherichia coli assessed as fractional inhibitory concentration index incubated for 18 hrs in presence of rifampin by checkerboard assay; assay type: functional
# Pseudomonas aeruginosa [28] = assay: Synergistic antibacterial activity against Pseudomonas aeruginosa assessed as fractional inhibitory concentration index incubated for 18 hrs in presence of polymyxin B by checkerboard assay; assay type: functional
# Staphylococcus aureus [29] = assay: Antibacterial activity against Staphylococcus aureus incubated for 18 hrs in presence of KCl by broth microdilution method; assay type: functional, organism-based
# Pseudomonas aeruginosa [30] = assay: Induction of morphological change in Pseudomonas aeruginosa assessed as leakage of cellular contents at 2 times MIC incubated for 30 mins by SEM analysis; assay type: functional, organism-based
# Klebsiella pneumoniae [31] = assay: Additive antibacterial activity against Klebsiella pneumoniae assessed as fractional inhibitory concentration index incubated for 18 hrs in presence of kanamycin by checkerboard assay; assay type: functional
# Cell membrane [32] = assay: Induction of cell membrane disruption in Escherichia coli assessed as PI uptake at 4 times MIC incubated for 2 hrs by PI staining based flow cytometry analysis (reference value: 11.9%); assay type: cell membranes
# Staphylococcus aureus [33] = assay: Antibacterial activity against methicillin resistant Staphylococcus aureus 75 incubated for 18 hrs by broth microdilution method; assay type: functional
# [34] = Self-assembly property of compound in water assessed as beta-sheet formation by measuring particle size at 50 uM by […]; assay type: physicochemical; details: buffer
# Klebsiella pneumoniae [35] = assay: Antibacterial activity against Klebsiella pneumoniae ATCC 700603 incubated for 18 hrs by broth microdilution method; assay type: functional
# Staphylococcus aureus [36] = assay: Antibacterial activity against Staphylococcus aureus 794 infected in BALB/c mouse skin wound infection model assessed as reduction in TNFalpha level at 1 mg/ml, ip pre-infected with bacteria for 24 hrs followed by compound addition and measured after 13 days post infection; assay type: functional, organism-based; details: time 12.0 day
# [37] = Acute toxicity in mouse assessed as mortality rate at 300 mg/kg, ip by karber method; assay type: organism-based; details: in vivo, read-out: Activity
# [38] = Retention time of the compound; assay type: physicochemical
# Cell membrane [39] = assay: Induction of cell membrane disruption in Escherichia coli assessed as PI uptake at 2 times MIC incubated for 2 hrs by PI staining based flow cytometry analysis (reference value: 11.9%); assay type: cell membranes
# Pseudomonas aeruginosa [40] = assay: Antibacterial activity against Pseudomonas aeruginosa incubated for 18 hrs in presence of CaCl2 by broth microdilution method; assay type: functional, organism-based
# [41] = Self-assembly property of compound in PBS assessed as beta-sheet protofibrils formation at 128 uM incubated for 30 mins by SEM analysis; assay type: physicochemical; details: buffer, 0.5 h
# Klebsiella pneumoniae [42] = assay: Bactericidal activity against Klebsiella pneumoniae ATCC 700603 incubated for 18 hrs by broth microdilution method; assay type: functional
# Staphylococcus aureus [43] = assay: Antibacterial activity against rifampicin resistant Staphylococcus aureus incubated for 18 hrs by broth microdilution method; assay type: functional
# [44] = Self-assembly property of compound in PBS assessed as critical aggregation concentration incubated for 48 hrs; assay type: physicochemical; details: buffer
compound,measurement,setting,value
NCCCC[C@@H](NC(=O)[C@H](N)Cc1c[nH]c2ccccc12)C(=O)N[C@H](Cc1c[nH]c2ccccc12)C(=O)N[C@H](CCCCN)C(=O)N[C@H](Cc1c[nH]c2ccccc12)C(=O)N[C@@H](CC(N)=O)C(=O)NCC(=O)N[C@H](Cc1c[nH]c2ccccc12)C(=O)N[C@H](CCCCN)C(=O)N[C@H](Cc1c[nH]c2ccccc12)C(=O)N[C@H](CCCCN)C(=O)N[C@H](Cc1c[nH]c2ccccc12)C(N)=O,Activity,[1],Toxic
same,fractional inhibitory concentration index (FICI),Staphylococcus aureus [2],0.313
same,Activity,[3],874.9 nm
same,MIC,[4],4 µM
same,Activity,[5],Toxic
same,fractional inhibitory concentration index (FICI),Klebsiella pneumoniae [6],0.375
same,MIC,Staphylococcus aureus [7],8 µM
same,Activity,Pseudomonas aeruginosa [8],Active
same,fractional inhibitory concentration index (FICI),Staphylococcus aureus [9],0.313
same,Activity,[10],Non-Toxic
same,Activity,Escherichia coli [11],Active
same,Activity,Klebsiella pneumoniae [12],100%
same,fractional inhibitory concentration index (FICI),Escherichia coli [13],0.375
same,fractional inhibitory concentration index (FICI),Staphylococcus aureus [14],0.375
same,MBC,Escherichia coli [15],8 µM
same,fractional inhibitory concentration index (FICI),Pseudomonas aeruginosa [16],0.563
same,Activity,Staphylococcus aureus [17],Active
same,fractional inhibitory concentration index (FICI),Staphylococcus aureus [18],0.375
same,Activity,Staphylococcus aureus [19],Active
same,Activity,Staphylococcus aureus [20],Active
same,fractional inhibitory concentration index (FICI),Staphylococcus aureus [21],0.5
same,MBC,Staphylococcus aureus [22],8 µM
same,half-life,[23],> 48 h
same,MIC,Escherichia coli [24],8 µM
same,Activity,[25],Non-Toxic
same,fractional inhibitory concentration index (FICI),Pseudomonas aeruginosa [26],1.063
same,fractional inhibitory concentration index (FICI),Escherichia coli [27],0.375
same,fractional inhibitory concentration index (FICI),Pseudomonas aeruginosa [28],0.188
same,Activity,Staphylococcus aureus [29],Active
same,Activity,Pseudomonas aeruginosa [30],Active
same,fractional inhibitory concentration index (FICI),Klebsiella pneumoniae [31],0.563
same,Activity,Cell membrane [32],92.8%
same,MIC,Staphylococcus aureus [33],8 µM
same,Activity,[34],126.5 nm
same,MIC,Klebsiella pneumoniae [35],8 µM
same,Activity,Staphylococcus aureus [36],Active
same,mortality,[37],100%
same,Retention_time,[38],14.321 min
same,Activity,Cell membrane [39],86.2%
same,Activity,Pseudomonas aeruginosa [40],Active
same,Activity,[41],Active
same,MBC,Klebsiella pneumoniae [42],8 µM
same,MIC,Staphylococcus aureus [43],8 µM
same,CAC,[44],7.78 µM
